Reference: patent US9427482B2, “Agents for clearing biomolecules from circulation” (KONINKLIJKE PHILIPS N.V., priority 2010, dated 2016)

How the values were obtained:
tumor = assay: Dual isotope biodistribution, mice pretargeted with CC49-TCO 20 (Example 10); format: in vivo; details: two doses of 12; 3 h after ^177Lu-tetrazine 15
Protocol: Tumor-bearing mice (ca. 100 mm^3 tumor size; n=4) were injected with ^125I-CC49 functionalized with 7.5 TCO-20 groups (100 μg/mouse, ca. 0.2 MBq). Thirty and 48 hours post-mAb injection the mice received one dose of clearing agent (galactose-MSA-tetrazine, 160 μg/dose) followed 2 h later by ^177Lu-tetrazine 15 (10 eq. with respect to the mAb, ca. 0.5 MBq). Three hours post-tetrazine injection the mice were anesthetized and sacrificed by cervical dislocation, blood was withdrawn by heart puncture, organs and tissues of interest were harvested and blotted dry. All collected samples were weighed and added with 1 mL PBS. The sample radioactivity was measured in a gamma-counter with a dual-isotope protocol (10-80 keV window for ^125I and 155-380 keV window for ^177Lu) along with standards to determine the percent injected dose per gram tissue (% ID/g).

[1] = Human radiation dosimetry (OLINDA/EXM); details: human model, 73 Kg adult male
Protocol: (§1) Radiation dosimetry estimates were calculated for a male human model (standard 73 Kg adult) and for a voxelized mouse model by using the mouse biodistribution data (Example 12, Tables 7 and 8) according to the MIRD methodology. Activity concentration in these organs were converted in percent injected dose (% ID) and decay corrected to the time of injection. The % ID for blood, muscle and bone were estimated from the % ID/g of tissue and assuming 6%, 42% and 11% of the body weight. Whenever possible the time activity curves were fitted by a two-phase exponential clearance function. The fitted function was then integrated analytically to yield the organ residence times (Table 9). […] The time activity curve of the tumor was fitted by a mono-exponential uptake function defined as F(t)=a0(1−exp(−a1t)).
Human radiation dosimetry (Table 10) were calculated using the above measured residence times and the OLINDA/EXM program with the following assumptions: 10% of the blood residence time was assigned to the heart content and 90% was assigned to the remainder of the body; the activity measured in the small and large intestines were assigned to the organ content but the radiation dose was assigned to the organ itself; activity in the large intestine was assigned in equal part to the upper and lower large intestines; activity in the bone was assigned in equal parts to the trabecular and […] bone components. The bladder voiding model in OLINDA/EXM was used. Residence time to the red marrow was calculated as a fraction of blood residence time (τmarrow=0.08 τblood).

[2] = Mouse radiation dosimetry (voxelized mouse model, EGSNRC)
Protocol: as §1
Radiation doses to the mouse organs were evaluated using the MIRD methodology where the S-factors in the mouse were calculated using a voxelized model of a mouse and the electron transport program EGSNRC to calculate energy deposition. The MOBY mouse phantom of Segars et al. was voxelized on a 0.2 mm grid and further modified to include the following organs: intestine wall and content, stomach wall and content, bladder wall and content and a 20 μl gall bladder. Finally, a 0.53 g tumor was added to the left side of the neck of the animal. Twenty-seven independent simulations, each for 10 millions decays, were performed with the program EGSNRC to calculate the energy deposition in each target organ for each source organ. The simulation included all decay particles from ^177Lu as listed in www.nndc.bnl.gov/MIRD tables. These S-factors were then used with the organ residence times measured above.

## O=C([O-])CN1CCN(CC(=O)[O-])CCN(CC(=O)NCCOCCOCCOCCOCCOCCOCCOCCOCCOCCOCCOCCNC(=O)CCCC(=O)Nc2ccc(-c3nnc(-c4ccccn4)nn3)nc2)CCN(CC(=O)[O-])CC1.[177Lu+3] [^177Lu-tetrazine]
tumor
  ^177Lu-tetrazine Blood: 0.03 ± 0.00 % ID/gram
  ^177Lu-tetrazine Bone: 0.08 ± 0.04 % ID/gram
  ^177Lu-tetrazine Brain: 0.01 ± 0.00 % ID/gram
  ^177Lu-tetrazine Heart: 0.05 ± 0.01 % ID/gram
  ^177Lu-tetrazine Kidney: 1.50 ± 0.24 % ID/gram
  ^177Lu-tetrazine Liver: 0.19 ± 0.02 % ID/gram
  ^177Lu-tetrazine Lung: 0.24 ± 0.02 % ID/gram
  ^177Lu-tetrazine Muscle: 0.03 ± 0.00 % ID/gram
  ^177Lu-tetrazine Spleen: 0.09 ± 0.01 % ID/gram
  ^177Lu-tetrazine Tumor: 9.25 ± 2.16 % ID/gram
  ^177Lu-tetrazine Tumor/organ Blood: 304 ± 80
  ^177Lu-tetrazine Tumor/organ Bone: 142 ± 59
  ^177Lu-tetrazine Tumor/organ Brain: 1674 ± 243
  ^177Lu-tetrazine Tumor/organ Heart: 187 ± 20
  ^177Lu-tetrazine Tumor/organ Kidney: 6 ± 2
  ^177Lu-tetrazine Tumor/organ Liver: 50 ± 10
  ^177Lu-tetrazine Tumor/organ Lung: 39 ± 8
  ^177Lu-tetrazine Tumor/organ Muscle: 328 ± 96
  ^177Lu-tetrazine Tumor/organ Spleen: 108 ± 22
[1]
  Effective Dose: 0.0195 mSv/MBq
  Organ Radiation dose Adrenals: 0.00162 mGy/MBq
  Organ Radiation dose Bladder Wall: 0.104 mGy/MBq
  Organ Radiation dose Brain: 0.000146 mGy/MBq
  Organ Radiation dose Breasts: 0.0013 mGy/MBq
  Organ Radiation dose Gall Bladder Wall: 0.0018 mGy/MBq
  Organ Radiation dose Heart Wall: 0.000537 mGy/MBq
  Organ Radiation dose Kidneys: 0.0425 mGy/MBq
  Organ Radiation dose Liver: 0.0142 mGy/MBq
  Organ Radiation dose Lower Large Int.: 0.0363 mGy/MBq
  Organ Radiation dose Lungs: 0.00288 mGy/MBq
  Organ Radiation dose Muscle: 0.000861 mGy/MBq
  Organ Radiation dose Osteogenic cells: 0.00172 mGy/MBq
  Organ Radiation dose Ovaries: 0.0341 mGy/MBq
  Organ Radiation dose Pancreas: 0.00164 mGy/MBq
  Organ Radiation dose Red marrow: 0.00302 mGy/MBq
  Organ Radiation dose Skin: 0.0029 mGy/MBq
  Organ Radiation dose Small Intestines: 0.0101 mGy/MBq
  Organ Radiation dose Spleen: 0.0112 mGy/MBq
  Organ Radiation dose Stomach Wall: 0.00599 mGy/MBq
  Organ Radiation dose Testes: 0.00151 mGy/MBq
  Organ Radiation dose Thymus: 0.00134 mGy/MBq
  Organ Radiation dose Thyroid: 0.00132 mGy/MBq
  Organ Radiation dose Total Body: 0.00287 mGy/MBq
  Organ Radiation dose Upper large Int.: 0.0231 mGy/MBq
  Organ Radiation dose Uterus: 0.0293 mGy/MBq
[2]
  Effective Dose: 15.6 mSv/MBq
  Organ Radiation dose Bladder Wall: 168 mGy/MBq
  Organ Radiation dose Brain: 1 mGy/MBq
  Organ Radiation dose Cranium: 13 mGy/MBq
  Organ Radiation dose Femur: 8 mGy/MBq
  Organ Radiation dose Gall Bladder: 2 mGy/MBq
  Organ Radiation dose Heart Wall: 2 mGy/MBq
  Organ Radiation dose Intestine Wall: 9 mGy/MBq
  Organ Radiation dose Kidneys: 58 mGy/MBq
  Organ Radiation dose Liver: 10 mGy/MBq
  Organ Radiation dose Lungs: 5 mGy/MBq
  Organ Radiation dose Pancreas: 2 mGy/MBq
  Organ Radiation dose Ribs: 8 mGy/MBq
  Organ Radiation dose Skin: 1 mGy/MBq
  Organ Radiation dose Spine: 8 mGy/MBq
  Organ Radiation dose Spine (marrow): 7 mGy/MBq
  Organ Radiation dose Spleen: 15 mGy/MBq
  Organ Radiation dose Stomach Wall: 16 mGy/MBq
  Organ Radiation dose Testes (ovaries): 1 mGy/MBq
  Organ Radiation dose Thyroid: 1 mGy/MBq
  Organ Radiation dose Trachea: 2 mGy/MBq
  Radiation dose Whole Body: 5 mGy/MBq
[2]; 0.53 g tumor
  Radiation dose Tumor: 479 mGy/MBq
